Experimental data taken from publication PMC6008489 (Bioorganic & Medicinal Chemistry, 2018).

What was measured:
Type in all cases: biochemical
Aurora A = target: T1, Aurora A (Homo sapiens, UniProt O14965); conditions: for Ki: calculated from mean IC50 using the Cheng-Prusoff equation, read-out: AurA Ki; for AurA ligand efficiency (LE): from Ki
T1 sequence (O14965 1-403): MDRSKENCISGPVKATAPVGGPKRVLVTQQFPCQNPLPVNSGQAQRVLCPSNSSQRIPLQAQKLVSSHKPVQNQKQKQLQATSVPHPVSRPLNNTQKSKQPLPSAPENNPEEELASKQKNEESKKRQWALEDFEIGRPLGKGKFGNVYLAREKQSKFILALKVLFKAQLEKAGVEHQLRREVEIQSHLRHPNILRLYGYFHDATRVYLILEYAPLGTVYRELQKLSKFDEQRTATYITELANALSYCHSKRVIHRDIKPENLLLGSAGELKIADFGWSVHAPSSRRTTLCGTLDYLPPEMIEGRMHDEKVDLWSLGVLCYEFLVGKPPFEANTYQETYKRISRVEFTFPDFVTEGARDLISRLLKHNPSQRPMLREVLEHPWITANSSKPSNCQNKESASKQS
Procedure: (§1) IC50 values were obtained for an expanded version of the fragment library using the previously described mobility shift assay.[44] Subsequently, Ki values were estimated from IC50 values to allow better comparison of the activity against targets which were measured at different substrate concentrations (Supplementary data Table 1).
(§2) IC50 values for MPS1, Aurora A and Aurora B inhibition were determined as previously described,[44] and Ki values were estimated from the mean IC50 values using the Cheng-Prusoff equation.[48]
(§3) Kinase [ATP] (M) [Enzyme] (nM) [Peptide Substrate] (M) MgCl2 (mM)
(§4) For all compounds, IC50 values for MPS1, Aurora A, and Aurora B were determined
(§5) using MPS1 and Aurora A/B mobility shift assays as described previously.1 IC50
(§6) values were calculated from a four-parameter logistic fit of percentage inhibition
(§7) versus concentration (at 8 compound concentrations) using GraphPad Prism 5
(§8) (GraphPad Software, Inc., CA, USA). Mean IC50 values were determined from two
(§9) independent measurements each carried out in duplicate. Ki values were estimated
(§10) from the mean IC50 values using the Cheng-Prusoff equation.

Aurora B = Aurora B (Homo sapiens, UniProt Q96GD4); conditions: for Ki: calculated from mean IC50 using the Cheng-Prusoff equation, read-out: AurB Ki; for AurB ligand efficiency (LE): from Ki;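 on all read-outs here: aurora B inhibition measured in a mobility shift assay, underlying mean IC50 taken from two independent duplicate runs at 8 compound concentrations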
Procedure: as §1, §2, §3, §4, §5, §6, §7, §8, §9, §10

AurB = AurB (Homo sapiens, UniProt Q96GD4); test: 26-kinase panel mobility shift assay, single concentration; conditions: read-out: % Inhibition AurB
Procedure: Mobility Shift Assay Protocol
(§11) Screening of 26 kinases using a mobility shift assay
(§12) A mobility shift assay to determine kinase inhibition was carried out using a
(§13) modified version of the ProfilerPro assay kit 1 (Perkin Elmer, Coventry, UK)
(§14) including MPS1 and Aurora B. Each kit contained an enzyme plate, a substrate
(§15) plate, reconstitution buffer, 1 M DTT, protease inhibitor cocktail and termination
(§16) buffer. Test compounds were added as a solution in DMSO.
(§17) peptide phosphorylation assay was carried out as per the manufacturer’s
(§18) instructions. The electrophoretic separation and analysis of the phosphorylated
(§19) and non-phosphorylated peptides was carried out on a 4-sipper chip using a
(§20) LabChip EZReader II (Perkin Elmer). Results were expressed as % inhibition of
(§21) peptide phosphorylation relative to control wells for 0 % (no test compound) and
(§22) 100 % (no ATP) inhibition. The percentage inhibition was calculated using the
(§23) % Inhibition = [1 - (% Conversion Sample / % Conversion 0% Inhibition Control)] x 100

SRC = target: T2, SRC (Homo sapiens, UniProt P12931); test: as above; conditions: read-out: % Inhibition SRC
T2 construct: purchased Perkin Elmer (ProfilerPro assay kit 1)
Procedure: (§24) In order to test the biochemical activity of our fragment library, a panel of 26 structurally diverse protein kinases was used.
as §11, §12, §13, §14, §15, §16, §17, §18, §19, §20, §21, §22, §23

RSK1 = target: T3, RSK1 (Homo sapiens, UniProt Q15418); test: as above; conditions: read-out: % Inhibition RSK1
T3 construct: purchased Perkin Elmer (ProfilerPro assay kit 1)
Procedure: Mobility Shift Assay Protocol
as §11, §12, §13, §14, §15, §16, §17, §18, §19, §20, §21, §22, §23

PKCζ = target: T4, PKCζ (Homo sapiens, UniProt Q05513); test: as above; conditions: read-out: % Inhibition PKC
T4 construct: purchased Perkin Elmer (ProfilerPro assay kit 1)
T4 sequence (Q05513 1-592): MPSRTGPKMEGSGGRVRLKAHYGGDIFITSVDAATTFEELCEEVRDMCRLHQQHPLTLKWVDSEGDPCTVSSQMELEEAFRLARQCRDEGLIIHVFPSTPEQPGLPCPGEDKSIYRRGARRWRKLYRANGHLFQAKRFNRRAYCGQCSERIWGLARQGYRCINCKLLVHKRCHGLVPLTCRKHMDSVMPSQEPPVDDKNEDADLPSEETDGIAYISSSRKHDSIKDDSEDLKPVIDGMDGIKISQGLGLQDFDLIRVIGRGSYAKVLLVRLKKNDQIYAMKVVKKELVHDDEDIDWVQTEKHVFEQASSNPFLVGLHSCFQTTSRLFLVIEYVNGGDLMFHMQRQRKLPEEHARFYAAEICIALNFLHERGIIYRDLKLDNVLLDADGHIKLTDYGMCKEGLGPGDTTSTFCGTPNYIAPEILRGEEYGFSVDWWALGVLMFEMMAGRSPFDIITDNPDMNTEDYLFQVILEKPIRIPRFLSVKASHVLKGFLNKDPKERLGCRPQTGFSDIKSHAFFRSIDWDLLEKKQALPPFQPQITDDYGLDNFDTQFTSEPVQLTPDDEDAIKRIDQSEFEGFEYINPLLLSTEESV
Procedure: as §24
Mobility Shift Assay Protocol
as §11, §12, §13, §14, §15, §16
final concentration. […] The
as §17, §18, §19, §20, §21, §22, §23

MSK1 = target: T5, MSK1 (Homo sapiens, UniProt O75582); test: as above; conditions: read-out: % Inhibition MSK1
T5 construct: purchased Perkin Elmer (ProfilerPro assay kit 1)
Procedure: as §24
Mobility Shift Assay Protocol
as §11, §12, §13, §14, §15, §16
final concentration. […] The
as §17, §18, §19, §20, §21, §22, §23

MET = target: T6, MET (Homo sapiens, UniProt P08581); test: as above; conditions: read-out: % Inhibition MET
T6 construct: purchased Perkin Elmer (ProfilerPro assay kit 1)
Procedure: as §24
Mobility Shift Assay Protocol
as §11, §12, §13, §14, §15, §16
final concentration. […] The
as §17, §18, §19, §20, §21, §22, §23

MAPKAPK2 = target: T7, MAPKAPK2 (Homo sapiens, UniProt P49137); test: as above; conditions: read-out: % Inhibition MAPKAPK2
T7 construct: purchased Perkin Elmer (ProfilerPro assay kit 1)
Procedure: as §12, §13, §14, §15, §16, §17, §18, §19, §20, §21, §22, §23

LYN = target: T8, LYN (Homo sapiens, UniProt P07948); test: as above; conditions: read-out: % Inhibition LYN
T8 construct: purchased Perkin Elmer (ProfilerPro assay kit 1)
Procedure: as §12, §13, §14, §15, §16, §17, §18, §19, §20, §21, §22, §23

INSR = target: T9, INSR (Homo sapiens, UniProt P06213); test: as above; conditions: read-out: % Inhibition INSR
T9 construct: purchased Perkin Elmer (ProfilerPro assay kit 1)
Procedure: as §24, §11, §12, §13, §14, §15, §16, §17, §18, §19, §20, §21, §22, §23

GSK3b = target: T10, GSK3b (Homo sapiens, UniProt P49841); test: as above; conditions: read-out: % Inhibition GSK3
T10 construct: purchased Perkin Elmer (ProfilerPro assay kit 1)
Procedure: as §12, §13, §14, §15, §16, §17, §18, §19, §20, §21, §22, §23

FYN = target: T11, FYN (Homo sapiens, UniProt P06241); test: as above; conditions: read-out: % Inhibition FYN
T11 construct: purchased Perkin Elmer (ProfilerPro assay kit 1)
Procedure: as §12, §13, §14, §15, §16, §17, §18, §19, §20, §21, §22, §23

Erk2 = target: T12, Erk2 (Homo sapiens, UniProt P28482); test: as above; conditions: read-out: % Inhibition Erk2
T12 construct: purchased Perkin Elmer (ProfilerPro assay kit 1)
Procedure: as §12, §13, §14, §15, §16, §17, §18, §19, §20, §21, §22, §23

CHK2 = target: T13, CHK2 (Homo sapiens, UniProt O96017); test: as above; conditions: read-out: % Inhibition CHK2
T13 construct: purchased Perkin Elmer (ProfilerPro assay kit 1)
Procedure: as §12, §13, §14, §15, §16, §17, §18, §19, §20, §21, §22, §23

AKT1 = target: T14, AKT1 (Homo sapiens, UniProt P31749); test: as above; conditions: read-out: % Inhibition AKT1
T14 construct: purchased Perkin Elmer ProfilerPro assay kit 1
T14 sequence (P31749 whole entry): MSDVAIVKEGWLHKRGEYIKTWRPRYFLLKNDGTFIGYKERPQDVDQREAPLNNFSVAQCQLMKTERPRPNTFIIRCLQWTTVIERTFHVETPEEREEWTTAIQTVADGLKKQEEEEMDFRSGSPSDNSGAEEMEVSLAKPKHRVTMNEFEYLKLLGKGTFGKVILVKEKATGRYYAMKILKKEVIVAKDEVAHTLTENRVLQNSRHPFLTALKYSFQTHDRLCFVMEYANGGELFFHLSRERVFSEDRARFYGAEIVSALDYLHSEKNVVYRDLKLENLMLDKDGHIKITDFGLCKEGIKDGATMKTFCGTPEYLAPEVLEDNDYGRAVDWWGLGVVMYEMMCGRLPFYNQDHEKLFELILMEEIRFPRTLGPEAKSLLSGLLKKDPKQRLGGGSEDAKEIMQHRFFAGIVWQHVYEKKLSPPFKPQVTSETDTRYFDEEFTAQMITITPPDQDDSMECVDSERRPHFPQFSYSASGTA
Procedure: Mobility Shift Assay Protocol
as §11, §12, §13, §14, §15, §16, §17, §18, §19, §20, §21, §22, §23

T10 sequence (P49841 whole entry): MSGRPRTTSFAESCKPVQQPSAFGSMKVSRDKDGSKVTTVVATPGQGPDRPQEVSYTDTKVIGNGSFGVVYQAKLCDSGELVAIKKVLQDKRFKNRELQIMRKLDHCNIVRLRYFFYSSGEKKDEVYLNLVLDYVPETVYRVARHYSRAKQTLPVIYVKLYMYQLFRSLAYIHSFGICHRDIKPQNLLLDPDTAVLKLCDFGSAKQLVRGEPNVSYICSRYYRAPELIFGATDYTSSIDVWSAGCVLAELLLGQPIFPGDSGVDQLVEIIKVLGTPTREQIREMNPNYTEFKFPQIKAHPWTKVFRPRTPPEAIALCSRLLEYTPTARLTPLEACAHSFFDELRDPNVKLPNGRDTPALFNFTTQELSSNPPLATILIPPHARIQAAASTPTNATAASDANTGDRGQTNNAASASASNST
T9 sequence (P06213 28-1382): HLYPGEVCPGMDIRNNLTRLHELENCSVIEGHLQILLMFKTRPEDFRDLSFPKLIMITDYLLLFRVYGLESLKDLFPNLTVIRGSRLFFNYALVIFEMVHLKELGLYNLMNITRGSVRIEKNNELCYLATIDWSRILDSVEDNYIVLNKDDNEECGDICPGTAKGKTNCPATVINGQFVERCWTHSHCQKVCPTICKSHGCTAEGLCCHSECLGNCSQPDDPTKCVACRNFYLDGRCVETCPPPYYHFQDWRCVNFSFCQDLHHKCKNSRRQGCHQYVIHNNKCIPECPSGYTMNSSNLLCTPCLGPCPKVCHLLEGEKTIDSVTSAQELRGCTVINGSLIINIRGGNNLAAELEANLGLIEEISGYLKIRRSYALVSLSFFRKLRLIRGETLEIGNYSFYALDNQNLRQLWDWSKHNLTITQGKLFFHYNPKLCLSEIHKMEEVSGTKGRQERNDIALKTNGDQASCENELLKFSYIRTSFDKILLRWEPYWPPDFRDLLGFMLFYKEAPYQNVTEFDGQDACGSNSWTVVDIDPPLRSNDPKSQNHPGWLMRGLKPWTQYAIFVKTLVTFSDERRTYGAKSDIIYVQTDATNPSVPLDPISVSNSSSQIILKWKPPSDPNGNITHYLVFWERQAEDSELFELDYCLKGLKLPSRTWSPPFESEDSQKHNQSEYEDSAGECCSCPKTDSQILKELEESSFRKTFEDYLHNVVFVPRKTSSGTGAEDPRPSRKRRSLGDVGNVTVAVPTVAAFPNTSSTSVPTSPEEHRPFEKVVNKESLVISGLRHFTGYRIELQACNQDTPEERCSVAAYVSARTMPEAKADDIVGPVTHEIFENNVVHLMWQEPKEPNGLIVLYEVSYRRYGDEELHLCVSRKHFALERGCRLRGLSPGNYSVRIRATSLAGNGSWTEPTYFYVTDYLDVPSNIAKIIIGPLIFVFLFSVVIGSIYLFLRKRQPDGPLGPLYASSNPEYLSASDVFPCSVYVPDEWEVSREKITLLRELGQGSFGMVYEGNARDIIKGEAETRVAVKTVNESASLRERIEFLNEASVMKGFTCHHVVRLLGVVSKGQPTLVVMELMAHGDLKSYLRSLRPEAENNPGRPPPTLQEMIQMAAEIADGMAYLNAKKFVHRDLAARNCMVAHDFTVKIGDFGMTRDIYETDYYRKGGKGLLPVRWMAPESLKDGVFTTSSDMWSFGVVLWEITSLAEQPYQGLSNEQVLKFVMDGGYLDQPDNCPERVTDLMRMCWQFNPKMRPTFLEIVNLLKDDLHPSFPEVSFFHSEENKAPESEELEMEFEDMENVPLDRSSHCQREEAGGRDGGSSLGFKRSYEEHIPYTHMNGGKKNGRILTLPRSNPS
T11 sequence (P06241 whole entry): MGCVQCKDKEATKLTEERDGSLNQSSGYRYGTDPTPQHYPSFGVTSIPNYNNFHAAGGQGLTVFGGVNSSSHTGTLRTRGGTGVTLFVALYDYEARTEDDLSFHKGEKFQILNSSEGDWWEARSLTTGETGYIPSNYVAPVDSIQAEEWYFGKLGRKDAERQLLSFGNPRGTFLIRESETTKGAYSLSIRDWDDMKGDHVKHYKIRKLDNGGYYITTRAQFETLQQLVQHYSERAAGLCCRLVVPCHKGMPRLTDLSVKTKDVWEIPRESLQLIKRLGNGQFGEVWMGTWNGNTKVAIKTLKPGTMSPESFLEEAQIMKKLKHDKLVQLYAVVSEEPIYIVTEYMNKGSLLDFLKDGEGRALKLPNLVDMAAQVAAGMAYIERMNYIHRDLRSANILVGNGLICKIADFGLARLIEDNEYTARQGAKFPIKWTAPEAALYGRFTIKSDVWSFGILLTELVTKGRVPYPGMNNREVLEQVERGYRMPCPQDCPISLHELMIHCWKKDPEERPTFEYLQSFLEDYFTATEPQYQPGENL
T3 sequence (Q15418 whole entry): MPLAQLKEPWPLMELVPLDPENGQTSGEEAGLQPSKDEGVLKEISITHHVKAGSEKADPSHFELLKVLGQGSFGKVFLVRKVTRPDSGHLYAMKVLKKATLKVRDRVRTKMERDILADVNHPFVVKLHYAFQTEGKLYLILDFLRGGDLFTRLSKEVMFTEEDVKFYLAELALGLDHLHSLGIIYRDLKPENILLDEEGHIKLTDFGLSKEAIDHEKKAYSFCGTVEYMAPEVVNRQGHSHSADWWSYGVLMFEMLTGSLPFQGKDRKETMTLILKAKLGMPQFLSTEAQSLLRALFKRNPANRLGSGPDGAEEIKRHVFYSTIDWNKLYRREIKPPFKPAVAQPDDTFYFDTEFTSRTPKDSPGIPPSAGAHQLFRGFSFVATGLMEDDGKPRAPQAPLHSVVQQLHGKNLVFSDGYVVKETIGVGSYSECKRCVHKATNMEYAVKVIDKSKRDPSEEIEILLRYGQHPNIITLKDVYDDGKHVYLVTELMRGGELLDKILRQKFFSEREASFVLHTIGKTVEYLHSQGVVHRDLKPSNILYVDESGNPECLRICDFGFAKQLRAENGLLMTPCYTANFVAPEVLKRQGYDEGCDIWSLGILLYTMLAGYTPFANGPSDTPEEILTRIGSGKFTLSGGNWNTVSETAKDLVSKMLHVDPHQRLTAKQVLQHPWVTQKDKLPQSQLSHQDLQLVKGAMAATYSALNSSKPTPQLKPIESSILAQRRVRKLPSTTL
T5 sequence (O75582 whole entry): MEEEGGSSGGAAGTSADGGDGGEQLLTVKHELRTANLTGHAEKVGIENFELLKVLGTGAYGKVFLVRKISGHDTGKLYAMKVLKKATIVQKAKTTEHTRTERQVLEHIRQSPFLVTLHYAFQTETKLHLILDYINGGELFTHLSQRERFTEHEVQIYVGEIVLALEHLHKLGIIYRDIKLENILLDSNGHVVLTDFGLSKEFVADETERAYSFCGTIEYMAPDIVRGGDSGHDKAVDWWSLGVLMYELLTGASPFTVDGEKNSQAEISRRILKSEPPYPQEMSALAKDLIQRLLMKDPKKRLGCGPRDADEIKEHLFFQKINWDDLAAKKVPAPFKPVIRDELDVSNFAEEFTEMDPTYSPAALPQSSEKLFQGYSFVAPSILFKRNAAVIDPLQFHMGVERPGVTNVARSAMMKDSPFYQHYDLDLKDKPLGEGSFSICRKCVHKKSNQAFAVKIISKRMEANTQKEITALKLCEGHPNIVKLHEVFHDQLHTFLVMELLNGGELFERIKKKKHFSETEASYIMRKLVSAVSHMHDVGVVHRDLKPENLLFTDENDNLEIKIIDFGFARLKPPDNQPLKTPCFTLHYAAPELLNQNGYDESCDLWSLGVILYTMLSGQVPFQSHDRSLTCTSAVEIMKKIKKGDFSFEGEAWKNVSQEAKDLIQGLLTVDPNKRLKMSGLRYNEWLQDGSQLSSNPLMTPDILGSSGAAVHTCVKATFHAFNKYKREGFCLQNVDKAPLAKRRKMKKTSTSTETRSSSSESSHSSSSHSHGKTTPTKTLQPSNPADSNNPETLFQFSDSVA
T2 sequence (P12931 whole entry): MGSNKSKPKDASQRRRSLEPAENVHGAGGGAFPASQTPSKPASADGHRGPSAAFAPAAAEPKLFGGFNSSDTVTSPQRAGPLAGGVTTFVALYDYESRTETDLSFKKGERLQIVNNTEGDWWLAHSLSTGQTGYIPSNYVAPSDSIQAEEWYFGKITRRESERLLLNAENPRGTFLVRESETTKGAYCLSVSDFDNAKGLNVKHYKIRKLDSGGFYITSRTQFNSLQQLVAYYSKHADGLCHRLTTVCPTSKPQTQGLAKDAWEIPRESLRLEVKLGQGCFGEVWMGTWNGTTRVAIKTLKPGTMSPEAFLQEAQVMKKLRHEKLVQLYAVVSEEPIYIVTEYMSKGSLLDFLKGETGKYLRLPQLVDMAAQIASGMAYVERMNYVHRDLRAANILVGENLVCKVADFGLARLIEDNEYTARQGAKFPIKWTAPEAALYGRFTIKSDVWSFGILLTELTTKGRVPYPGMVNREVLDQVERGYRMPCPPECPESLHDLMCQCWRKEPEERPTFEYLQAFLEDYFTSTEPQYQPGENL

| Structure (SMILES) | Ki (Aurora A) [µM] | AurA ligand efficiency (LE) (Aurora A) | Ki (Aurora B) [µM] | AurB ligand efficiency (LE) (Aurora B) | inhibition at 30 µM (AurB) [%] | inhibition at 30 µM (SRC) [%] | inhibition at 100 µM (AurB) [%] | inhibition at 100 µM (SRC) [%] | inhibition at 100 µM (RSK1) [%] | inhibition at 100 µM (PKCζ) [%] | inhibition at 100 µM (MSK1) [%] | inhibition at 100 µM (MET) [%] | inhibition at 100 µM (MAPKAPK2) [%] | inhibition at 100 µM (LYN) [%] | inhibition at 100 µM (INSR) [%] | inhibition at 100 µM (GSK3b) [%] | inhibition at 100 µM (FYN) [%] | inhibition at 100 µM (Erk2) [%] | inhibition at 100 µM (CHK2) [%] | inhibition at 100 µM (AKT1) [%] | other results |
| --- | --- | --- | --- | --- | --- | --- | --- | --- | --- | --- | --- | --- | --- | --- | --- | --- | --- | --- | --- | --- | --- |
| CN1CCN(c2ccc(C(=O)Nc3cc(-c4ccncc4)c[nH]c3=O)cc2)CC1 [Compound 22] | 14.9 | 0.23 | 5.5 | 0.25 | 71 | 98 | – | – | – | – | – | – | – | – | – | – | – | – | – | – | inhibition at 30 µM (RSK1): 41%; inhibition at 30 µM (PKCζ): 24%; inhibition at 30 µM (MSK1): 8%; inhibition at 30 µM (MET): 24%; inhibition at 30 µM (MAPKAPK2): 12%; inhibition at 30 µM (LYN): 93%; inhibition at 30 µM (INSR): 30%; inhibition at 30 µM (GSK3b): 94%; inhibition at 30 µM (FYN): 95%; inhibition at 30 µM (Erk2): 1%; inhibition at 30 µM (CHK2): 33%; inhibition at 30 µM (AKT1): 13% |
| Nc1ccc[nH]c1=O [Compound 1, 3-aminopyridin-2-one] | 361 | 0.59 | 160 | 0.64 | – | – | 20 | 31 | 19 | 27 | 26 | 33 | 25 | 15 | 2 | 17 | 11 | 3 | 49 | 42 | – |
| COc1ncc(-c2ccncc2)cc1N [Compound 5, 6-Methoxy-3,4′-bipyridin-5-amine] | 185 | 0.31 | 63.9 | 0.38 | – | – | 35 | 8 | 23 | 5 | 61 | 18 | 19 | 15 | 6 | 26 | 9 | 12 | 36 | 22 | – |
| Cc1nc(O)c(N)cc1-c1ccncc1 [Compound 15, 3-Amino-6-methyl-5-(pyridin-4-yl)pyridin-2-one] | > 100 | – | 25.7 | 0.42 | – | – | 77 | 21 | 17 | 13 | 14 | 14 | 33 | 10 | 23 | 39 | 6 | 11 | 42 | 10 | – |
| Nc1cc(-c2ccnc3ccccc23)c[nH]c1=O [Compound 6] | 76.3 | 0.31 | 41.7 | 0.33 | – | – | 61 | 24 | 10 | 17 | 22 | 19 | 32 | 27 | 13 | 20 | 40 | 15 | 57 | 15 | – |
| O=C(Nc1cc(-c2ccnc(NC3CC3)n2)c[nH]c1=O)c1ccccc1 [Compound 24] | 17.3 | 0.25 | 3.6 | 0.28 | 91 | 99 | – | – | – | – | – | – | – | – | – | – | – | – | – | – | inhibition at 30 µM (RSK1): 98%; inhibition at 30 µM (PKCζ): 0%; inhibition at 30 µM (MSK1): 83%; inhibition at 30 µM (MET): 65%; inhibition at 30 µM (MAPKAPK2): 96%; inhibition at 30 µM (LYN): 86%; inhibition at 30 µM (INSR): 27%; inhibition at 30 µM (GSK3b): 99%; inhibition at 30 µM (FYN): 93%; inhibition at 30 µM (Erk2): 37%; inhibition at 30 µM (CHK2): 71%; inhibition at 30 µM (AKT1): 73% |
| Nc1cc(-c2ccnc(NC3CC3)n2)c[nH]c1=O [Compound 8] | 30.2 | 0.34 | 12 | 0.37 | – | – | 79 | 46 | 89 | 0 | 27 | 26 | 28 | 42 | 27 | 87 | 51 | 45 | 61 | 18 | – |
| O=C(Nc1cc(-c2ccncc2)c[nH]c1=O)c1ccccc1 [Compound 16, N-(2-Oxo-5-(pyridin-4-yl)-1,2-dihydropyridin-3-yl)benzamide] | 3.3 | 0.34 | 41 | 0.27 | 24 | 60 | – | – | – | – | – | – | – | – | – | – | – | – | – | – | inhibition at 30 µM (RSK1): 19%; inhibition at 30 µM (PKCζ): 0%; inhibition at 30 µM (MSK1): 1%; inhibition at 30 µM (MET): 9%; inhibition at 30 µM (MAPKAPK2): 29%; inhibition at 30 µM (LYN): 55%; inhibition at 30 µM (INSR): 13%; inhibition at 30 µM (GSK3b): 92%; inhibition at 30 µM (FYN): 59%; inhibition at 30 µM (Erk2): 5%; inhibition at 30 µM (CHK2): 29%; inhibition at 30 µM (AKT1): 12% |
| Cn1cc(-c2c[nH]c(=O)c(N)c2)cn1 [Compound 2, 3-Amino-5-(1-methyl-1H-pyrazol-4-yl)pyridin-2(1H)-one] | 7.5 | 0.53 | 3.2 | 0.53 | – | – | 96 | 86 | 89 | 83 | 95 | 81 | 97 | 49 | 25 | 68 | 34 | 68 | 99 | 97 | – |
| CNc1nccc(-c2c[nH]c(=O)c(N)c2)n1 [Compound 7] | 21.3 | 0.40 | 15.1 | 0.41 | – | – | 94 | 89 | 91 | 37 | 94 | 76 | 79 | 63 | 80 | 89 | 66 | 53 | 98 | 89 | – |
